Our source for the EC50 values is patent publication US20240360081A1, “SULFONAMIDE OREXIN RECEPTOR AGONISTS AND USES THEREOF” (Jazz Pharmaceuticals Ireland Limited, priority 2021, published 2024).

pEC50: −log10 of the molar value. Some results are limits rather than exact numbers.

For the test, the target named is T1, human recombinant OX2 (hOX2) receptor expressed in CHO cells (Homo sapiens, UniProt O43614).
T1 construct: host or cells: CHO cells (hOX2-CHO)
T1 sequence (O43614 1-444): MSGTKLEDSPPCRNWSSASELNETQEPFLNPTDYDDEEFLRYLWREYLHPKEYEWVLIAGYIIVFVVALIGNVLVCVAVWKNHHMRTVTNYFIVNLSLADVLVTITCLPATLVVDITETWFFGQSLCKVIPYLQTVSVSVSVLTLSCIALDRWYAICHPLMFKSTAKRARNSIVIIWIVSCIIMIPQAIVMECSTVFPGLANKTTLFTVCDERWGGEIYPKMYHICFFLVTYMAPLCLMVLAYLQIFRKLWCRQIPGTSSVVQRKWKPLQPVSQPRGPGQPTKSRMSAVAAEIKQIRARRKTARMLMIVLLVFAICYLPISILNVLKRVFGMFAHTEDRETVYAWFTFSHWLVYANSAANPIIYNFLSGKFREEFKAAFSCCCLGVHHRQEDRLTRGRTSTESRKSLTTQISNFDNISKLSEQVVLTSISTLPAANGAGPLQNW
Nature of the test: IP-1 accumulation assay (IP-One HTRF) in hOX2-CHO cells. It is filed as cell-based. Particulars: 60 min at 37° C., 11 points CRC, response as % of maximal OX-A response. As for the experimental part:
The accumulation of Inositol-1 Monophosphate (IP-1) was measured using IP-One HTRF® Terbium cryptate based assay (Cisbio) in human recombinant OX1 (hOX1) and at OX2 (hOX2) receptors expressed in CHO cells (DiscoverX) according to the manufacturer's instructions for cells tested in suspension.
hOX1-CHO and hOX2-CHO cells were seeded into white 384-well plates at a density of 20,000 cells/well in Hank's Balanced Salt Solution (HBSS) containing 20 mM HEPES pH 7.4, 50 mM, LiCl and 0.1% and Bovine Serum Albumin (BSA).
Compounds of the present disclosure were tested in a 11 points concentration response curve (CRC) serially diluted in neat DMSO at 200 fold concentrations and added by Echo acoustic liquid handling (Labcyte) to the cells (0.5% DMSO final in the assay). After 60 min of incubation at 37° C. detection reagents, IP1-d2 tracer and anti-IP1-cryptate were diluted in lysis buffer according to the manufacturer's descriptions and added to the cells.
Following 60 min incubation at room temperature, time-resolved fluorescence (HTRF) was measured at 615 nm and 665 nm by Envision Multilabel reader (Perkin Elmer) and the HTRF ratio (A665/A615x104) was calculated.
The IP-1 accumulation response was expressed as percentage of the maximal OX-A response.
Curve fitting and EC50 estimations were carried out using a four-parameter logistic model using XLfit Software. Mean data of EC50 are calculated from at least two independent experiments performed in duplicates.
In the Tables, below Category A corresponds to compounds displaying an […]<100 nM, Category B between 100 nM and 1,000 nM, Category C between 1,000 nM and 10,000 nM and Category D above 10,000 nM.
As usually defined, the pEC50 is the EC50 on a negative log10 scale, so that one unit is a factor of ten. On to `CN(C)S(=O)(=O)NCC(CO[C@H]1CC[C@@H](c2ccccc2)CC1)n1ccccc1=O` (relative stereo) [Example 1f, 1-{1-[(Dimethylsulfamoyl)amino]-3-{[(CIS)-4-phenylcyclohexyl]oxy}propan-2-yl}-1,2-dihydropyridin-2-one], for which the pEC50 was 5.00 to 6.00.

With `Cc1cc(C(CNS(=O)(=O)CF)CO[C@H]2CC[C@@H](c3cc(F)cc(F)c3)CC2)c(=O)n(C)c1` (relative stereo) [Example 5t, N-[2-(1,5-dimethyl-2-oxo-1,2-dihydropyridin-3-yl)-3-{[(CIS)-4-(3,5-difluorophenyl)cyclohexyl]oxy}propyl]-1-fluoromethanesulfonamide], the pEC50 is > 7.00.

For the molecule `CS(=O)(=O)NCC(CO[C@H]1CC[C@@H](c2ccccc2)CC1)n1ccccc1=O` (single isomer, unassigned; isomer 1) [Example 1a, (R or S) N-[2-(2-oxo-1,2-dihydropyridin-1-yl)-3-{[(CIS)-4-phenylcyclo-hexyl]oxy}propyl] methane-sulfonamide- Isomer 1], the pEC50 is 5.00 to 6.00.

For `Cc1cccn(C(CNS(C)(=O)=O)CO[C@H]2CC[C@@H](c3ccccc3)CC2)c1=O` (single isomer, unassigned; isomer 1) [Example 1d, (R or S) N-[2-(3-methyl-2-oxo-1,2-dihydropyridin-1-yl)-3-{[(CIS)-4-phenylcyclo-hexyl]oxy}propyl] methane-sulfonamide- Isomer 1], the negative logarithm of the EC50 (pEC50) is < 5.00.

In the case of `CCc1cccn(C(CNS(C)(=O)=O)CO[C@H]2CC[C@@H](c3ccccc3)CC2)c1=O` (single isomer, unassigned; isomer 1) [Example 2a, (R or S) N-[2-(3-ethyl-2-oxo-1,2-dihydropyridin-1-yl)-3-{[(CIS)-4-phenylcyclohexyl]oxy}propyl]methanesulfonamide-Isomer 1], the pEC50 was < 5.00.

`Cc1ccn(C(CNS(C)(=O)=O)CO[C@H]2CC[C@@H](c3ccccc3)CC2)n1` (single isomer, unassigned; isomer 1) [Example 2ab, (R or S) N-[2-(3-methyl-1H-pyrazol-1-yl)-3-{[(CIS)-4-phenylcyclohexyl]oxy}propyl]methanesulfonamide-Isomer 1]: the pEC50 was < 5.00.

Regarding `Cc1ccnn1C(CNS(C)(=O)=O)CO[C@H]1CC[C@@H](c2ccccc2)CC1` (single isomer, unassigned; isomer 1) [Example 2ad, (R or S) N-[2-(5-methyl-1H-pyrazol-1-yl)-3-{[(CIS)-4-phenylcyclohexyl]oxy}propyl]methanesulfonamide-Isomer 1], the negative logarithm of the EC50 (pEC50) was < 5.00.

Take `Cc1cc(C)c(=O)n(C(CNS(C)(=O)=O)CO[C@H]2CC[C@@H](c3cccc(F)c3)CC2)c1` (single isomer, unassigned; isomer 1) [Example 2af, (R or S) N-[2-(3,5-dimethyl-2-oxo-1,2-dihydropyridin-1-yl)-3-{[(CIS)-4-(3-fluorophenyl)cyclohexyl]oxy}propyl]methanesulfonamide-Isomer 1]: the pEC50 is > 7.00.

Regarding `Cc1cc(Cl)cn(C(CNS(C)(=O)=O)CO[C@H]2CC[C@@H](c3cccc(F)c3)CC2)c1=O` (single isomer, unassigned; isomer 1) [Example 2ah, (R or S) N-[2-(5-chloro-3-methyl-2-oxo-1,2-dihydropyridin-1-yl)-3-{[(CIS)-4-(3-fluorophenyl)cyclohexyl]oxy}propyl]methanesulfonamide-Isomer 1], the pEC50 was > 7.00.

Turning to `Cc1cc(C)c(=O)n(C(CNS(=O)(=O)N(C)C)CO[C@H]2CC[C@@H](c3cccc(F)c3)CC2)c1` (single isomer, unassigned; isomer 1) [Example 2ar, (R or S) 1-[1-[(dimethylsulfamoyl)amino]-3-{[(CIS)-4-(3-fluorophenyl)cyclohexyl]oxy}propan-2-yl]-3,5-dimethyl-1,2-dihydropyridin-2-one-Isomer 1], the pEC50 was > 7.00.

`Cc1cc(C)c(=O)n(C(CNS(=O)(=O)CF)CO[C@H]2CC[C@@H](c3cccc(F)c3)CC2)c1` (single isomer, unassigned; isomer 1) [Example 2au, (R or S) N-[2-(3,5-dimethyl-2-oxo-1,2-dihydropyridin-1-yl)-3-{[(CIS)-4-(3-fluorophenyl)cyclohexyl]oxy}propyl]-1-fluoromethanesulfonamide-Isomer 1]: the pEC50 is > 7.00.

In the case of `Cc1cc(C)c(=O)n(C(CNS(C)(=O)=O)COC2CCN(c3ncc(F)cn3)CC2)c1` (single isomer, unassigned; isomer 1) [Example 2az, (R or S) N-[2-(3,5-dimethyl-2-oxo-1,2-dihydropyridin-1-yl)-3-{[1-(5-fluoropyrimidin-2-yl)piperidin-4-yl]oxy}propyl]methanesulfonamide-Isomer 1], the pEC50 is 5.00 to 6.00.

As to `CS(=O)(=O)NCC(CO[C@H]1CC[C@@H](c2ccccc2)CC1)n1cccc(F)c1=O` (single isomer, unassigned; isomer 1) [Example 2g, (R or S) N-[2-(3-fluoro-2-oxo-1,2-dihydropyridin-1-yl)-3-{[(CIS)-4-phenylcyclohexyl]oxy}propyl]methanesulfonamide-Isomer 1], the pEC50 is 5.00 to 6.00.

Turning to `Cc1ccc(=O)n(C(CNS(C)(=O)=O)CO[C@H]2CC[C@@H](c3ccccc3)CC2)c1` (single isomer, unassigned; isomer 1) [Example 2j, (R or S) N-[2-(5-methyl-2-oxo-1,2-dihydropyridin-1-yl)-3-{[(CIS)-4-phenylcyclohexyl]oxy}propyl]methanesulfonamide-Isomer 1], the pEC50 is 6.00 to 7.00.

Turning to `Cc1ccn(C(CNS(C)(=O)=O)CO[C@H]2CC[C@@H](c3ccccc3)CC2)c(=O)c1C` (single isomer, unassigned; isomer 1) [Example 2n, (R or S) N-[2-(3,4-dimethyl-2-oxo-1,2-dihydropyridin-1-yl)-3-{[(CIS)-4-phenylcyclohexyl]oxy}propyl]methanesulfonamide-Isomer 1], the pEC50 is 6.00 to 7.00.

In the case of `Cc1cc(C)c(=O)n(C(CNS(C)(=O)=O)CO[C@H]2CC[C@@H](c3ccccc3)CC2)c1` (single isomer, unassigned; isomer 1) [Example 2t, (R or S) N-[2-(3,5-dimethyl-2-oxo-1,2-dihydropyridin-1-yl)-3-{[(CIS)-4-phenylcyclohexyl]oxy}propyl]methanesulfonamide-Isomer 1], the pEC50 was > 7.00.

Regarding `Cc1cccn(C(CO[C@H]2CC[C@@H](c3ccccc3)CC2)C(C)NS(C)(=O)=O)c1=O` (single isomer, unassigned; isomer 1) [Example 3a, (2R or 2S) and (3R or 3S) N-[3-(3-methyl-2-oxo-1,2-dihydropyridin-1-yl)-4-{[(CIS)-4-phenylcyclohexyl]oxy}butan-2-yl]methanesulfonamide—Isomer 1], the negative logarithm of the EC50 (pEC50) is 5.00 to 6.00.

For the molecule `Cn1cccc(C(CNS(C)(=O)=O)CO[C@H]2CC[C@@H](c3ccccc3)CC2)c1=O` (single isomer, unassigned; isomer 1) [Example 4a, (R or S) N-[2-(1-methyl-2-oxo-1,2-dihydropyridin-3-yl)-3-{[(CIS)-4-phenylcyclohexyl]oxy}propyl]methanesulfonamide—Isomer 1], the pEC50 was 5.00 to 6.00.
